According to US11241440B2, “Dihydrooxadiazine compounds for treating infections and cancer” (VALORALIA I MÁS D, SL, priority 2016, dated 2022):
Read-outs that look alike come from different tables or passages of the source.

What was measured:
[1] = tested on: all tumor cell lines tested; assay: MTT assay, tumor cell lines of Table VII taken together
[2] = tested on: S. epidermidis; assay: Kirby-Bauer disk diffusion susceptibility test; format: cell-based, Staphylococcus epidermidis; details: S. epidermidis; 100 μg/disc; zone of inhibition
[3] = tested on: N. cyriacigeorgica; assay: Kirby-Bauer disk diffusion susceptibility test; format: cell-based; details: N. cyriacigeorgica; 100 μg/disc; zone of inhibition
[4] = tested on: HIV virus (NL4.3-Ren); assay: microbe, parasite or virus in culture; format: cell-based; details: for Viral replication (%): relative to DMSO control, cells not given
[5] = tested on: M. fortuitum; assay: Kirby-Bauer disk diffusion susceptibility test; format: cell-based; details: M. fortuitum; 100 μg/disc; zone of inhibition
[6] = tested on: XGF-N (PRG-NIA3 deficient in the envelope glycoprotein gG); format: cell-based, porcine pseudorabies virus (PRV)
[7] = tested on: CAL33; assay: MTT assay; format: cell-based
[8] = Cellular viability, CellTiter Glo (Table V, cells not stated); format: cell-based; details: human, relative to DMSO control
Procedure: All assays for assessing anti-HIV activity were taken in parallel to determine cellular viability of the culture in the presence or absence of different concentrations of the isolated molecule. It was followed exactly the same methodology as in the anti-HIV assay except with the addition of complete DMEM medium instead of supernatant viral, in the same proportion, and the detection of the viability was performed with the viability detection kit CellTiter Glo (Promega), following manufacturer instructions. Viability is directly proportional to the luciferase activity obtained. All data are expressed as percentage relative to a control with DMSO at the same concentration. Antiviral activity and toxicity curves were performed to the compound at different concentrations.

[9] = tested on: B. cereus; assay: Kirby-Bauer disk diffusion susceptibility test; format: cell-based, Bacillus cereus; details: B. cereus
[10] = tested on: HOS; assay: MTT assay; format: cell-based; details: Homo sapiens, 48 hours
[11] = tested on: N. carnea; assay: Kirby-Bauer disk diffusion susceptibility test; format: cell-based, Nocardia carnea; details: N. carnea; 100 μg/disc; zone of inhibition
[12] = tested on: PC3; assay: MTT assay; format: cell-based; details: Homo sapiens, PC-3, 48 hours

CCCCCC1=NN(C(=O)CCO)OC(CCCCC)C1 (stereo not drawn) [Compound, 1-(4,6-dipentyl-5,6-dihydro-2H-1,2,3-oxadiazin-2-yl)-3-hydroxypropan-1-one]
antitumoral activity ([1]; all tumor cell lines tested): exhibited activity in all tumor cell lines tested | concentration at which inhibition began to be relevant ([1]; rest of the cell lines (other than CAL33 and T98G)): 100 nM | Activity (mm), 100 μg/disc [2]: 16-18 mm | Activity (mm), 100 μg/disc [3]: 35-38 mm | Viral replication (%) ([4]; 0.19 μM): 45% | Viral replication (%) ([4]; 0.39 μM): 14% | Viral replication (%) ([4]; 0.78 μM): 3% | Viral replication (%) ([4]; 1.56 μM): 1% | Viral replication (%) ([4]; 3.12 μM): 0% | Viral replication (%) ([4]; 6.25 μM): 0% | Viral replication (%) ([4]; 12.5 μM): 0% | Viral replication (%) ([4]; 25 μM): 0% | Viral replication (%) ([4]; 50 μM): 0% | Viral replication (%) ([4]; 100 μM): 0% | IC50 ([4]; Human immunodeficiency virus 1, MT2, read-out: IC50 nM): 243 nM | IC50 ([4]; Human immunodeficiency virus 1, PBMC, read-out: IC50 nM): 362 nM | Activity (mm), 100 μg/disc [5]: 44 mm | reduction of the titer [6]: 1 logarithm | concentration at which inhibition is obtained [7]: 10 nM | optimal concentration of inhibition [7]: ≥ 50 nM | IC50 ([7]; Homo sapiens, CAL-33, 48 hours): 42.8 nM | viability at 0.19 µM ([8]; 0.19 μM): 114% | viability at 0.39 µM ([8]; 0.39 μM): 113% | viability at 0.78 µM ([8]; 0.78 μM): 109% | viability at 1.56 µM ([8]; 1.56 μM): 96% | viability at 3.12 µM ([8]; 3.12 μM): 78% | viability at 6.25 µM ([8]; 6.25 μM): 31% | viability at 12.5 µM ([8]; 12.5 μM): 7% | viability at 25 µM ([8]; 25 μM): 4% | viability at 50 µM ([8]; 50 μM): 2% | viability at 100 µM ([8]; 100 μM): 0% | kind of antibiotic activity [9]: bacteriostatic | Activity (mm), 100 μg/disc ([9]; 100 μg/disc, zone of inhibition): 37-40 mm | IC50 [10]: 170 nM | Activity (mm), 100 μg/disc [11]: 48-50 mm | IC50 [12]: 217 nM
